The experiment concerns HSV1. Format: cell-based, Human herpes simplex virus type 1. The note with it: for efficacy for reducing HSV1 infectivity (in words): Examples 2 and 3. On the procedure: African Green Monkey Kidney (Vero) cells were maintained in Eagle's minimum essential medium with Earle's salt (EMEM) and supplemented with 10% foetal calf serum (heat-inactivated), 4 mM L-glutamine, and 1% (v/v) nonessential amino acids, plus penicillin and streptomycin (100 IU/mg and […], respectively) (maintenance medium referred to as 10% EMEM). The cells were incubated at 37° C. in a humidified atmosphere of air with 5% CO2.
On harvesting, monolayers were washed in phosphate-buffered saline (PBS), and dislodged by incubating with trypsin in PBS for 30 min, before inactivating trypsin by addition of an equal volume of 10% EMEM and centrifuging at 500 g (5 min, 4° C.). Cell pellets were resuspended in 10% EMEM, prior to cell counting and seeding of 24-well plates. For antiviral assays, medium containing only 0.5% FCS was used (referred to as 0.5% EMEM).
Three separate passages of HSV1 virus were prepared by infecting Vero cells, and preparing semi-pure suspensions of virus from tissue culture supernatant and cell lysates, before freezing aliquots of virus at −85° C. Viral infectivity was assessed by carrying out plaque assays on serial dilutions of thawed aliquots (expressed in pfu/ml).
Peptides were obtained in lyophilised form from a commercial supplier (AltaBioscience, University of Birmingham or Advanced Biomedical), and were produced at 5 micromole scale. N-terminals were protected by addition of an acetyl group, and the C-terminals were protected by addition of an amide group.
Small quantities of peptide were weighed in sterile Eppendorf tubes, before addition of sufficient 0.5% EMEM to produce a 1.5 mM stock solution, which was frozen at −20° C. in aliquots.
Vero cells were seeded at 125,000 cells per well in 10% EMEM, and were incubated overnight resulting in confluent monolayers. […] Virus stocks (p3) were thawed, and diluted in 0.5% EMEM such that there were around 100 pfu in 100 μl. Each 24-well plate was inoculated separately. Firstly 100 μl of virus stock was added to the peptide or control medium arranged on a 96-well plate. This was incubated at 37° C. for ten minutes before inoculation. Medium was removed from four wells of a 24-well plate containing confluent Vero, and the 200 μl inoculum added to the appropriate well. Once all wells were treated, the 24-well plate was incubated for a further 60-80 minutes. Finally the peptide-containing inoculum was removed, and 1 ml of 1% EMEM containing 1% carboxymethylcellulose was added to each well. Plates were incubated for a further 22 hours or in some experiments 40 hours, before removal of overlay, and addition of 10% formaldehyde in PBS. After a further one hour incubation, fixative was removed, monolayers washed several times with tap water, and stained with carbol fuchsin solubilised in water. After 30 minutes stain was removed, and plates washed several times with tap water, before being air dried. Plaques were counted using an Olympus IX70 Inverting Microscope, and antiviral effect expressed as a percentage of the control value for each peptide concentration. The IC50 was calculated from plots of inhibitory effect against peptide concentration.

pIC50: −log10 of the molar value. Like-named read-outs stand apart in the source and are kept apart here. Peptide text beside a SMILES is read from it.

Take `CC(=O)N[C@@H](Cc1ccc(O)cc1)C(=O)N[C@@H](CCCNC(=N)N)C(=O)N[C@@H](CCCCN)C(=O)N[C@@H](Cc1ccc(O)cc1)C(=O)N[C@@H](CCCNC(=N)N)C(=O)N[C@@H](CCCCN)C(=O)N[C@@H](CCCNC(=N)N)C(=O)N[C@@H](Cc1ccc(O)cc1)C(=O)N[C@@H](Cc1ccc(O)cc1)C(=O)N[C@@H](Cc1ccc(O)cc1)C(=O)N[C@@H](CCCNC(=N)N)C(=O)N[C@@H](CCCCN)C(=O)N[C@@H](Cc1ccc(O)cc1)C(=O)N[C@@H](CCCNC(=N)N)C(=O)N[C@@H](CCCCN)C(=O)N[C@@H](CCCNC(=N)N)C(=O)N[C@@H](Cc1ccc(O)cc1)C(=O)N[C@@H](Cc1ccc(O)cc1)C(N)=O` [GIN 41] (Ac-YRKYRKRYYYRKYRKRYY-NH2): the “efficacy for reducing HSV1 infectivity (in words)” value is reported as “also had efficacy”. `CC(=O)N[C@@H](CC(C)C)C(=O)N[C@@H](CCCNC(=N)N)C(=O)N[C@@H](CCCCN)C(=O)N[C@@H](CC(C)C)C(=O)N1CCC[C@H]1C(=O)N[C@@H](CCCCN)C(=O)N[C@@H](CCCNC(=N)N)C(=O)N[C@@H](CC(C)C)C(=O)N[C@@H](CC(C)C)C(=O)N[C@@H](CC(C)C)C(=O)N[C@@H](CCCNC(=N)N)C(=O)N[C@@H](CCCCN)C(=O)N[C@@H](CC(C)C)C(=O)N1CCC[C@H]1C(=O)N[C@@H](CCCCN)C(=O)N[C@@H](CCCNC(=N)N)C(=O)N[C@@H](CC(C)C)C(=O)N[C@@H](CC(C)C)C(N)=O` [MU 44] (Ac-LRKLPKRLLLRKLPKRLL-NH2): the pIC50 – broadly, the negative decadic logarithm of the IC50, by convention in mol/L – was below 4.52. Same read-out and setting: for `CC[C@H](C)[C@H](NC(=O)[C@H](CO)NC(=O)[C@H](CO)NC(=O)[C@H](C)NC(=O)[C@H](CCCNC(=N)N)NC(=O)[C@H](CO)NC(=O)[C@H](Cc1ccccc1)NC(=O)[C@H](Cc1c[nH]cn1)NC(=O)[C@H](CC(=O)O)NC(=O)[C@H](CCC(N)=O)NC(=O)[C@H](CCSC)NC(=O)[C@@H](NC(=O)[C@H](CC(=O)O)NC(=O)[C@H](CC(C)C)NC(=O)[C@H](CCSC)NC(=O)[C@H](Cc1c[nH]cn1)NC(C)=O)C(C)C)C(=O)N[C@H](C(=O)N[C@@H](CC(=O)O)C(=O)N[C@@H](CCC(=O)O)C(=O)N[C@@H](CC(C)C)C(N)=O)[C@@H](C)CC` [GIN 29] (Ac-HMLDVMQDHFSRASSIIDEL-NH2) the value was 4.41.

The compound `CC(=O)N[C@@H](CC(C)C)C(=O)N[C@@H](CCCCN)C(=O)N[C@@H](CCCCN)C(=O)N[C@@H](CC(C)C)C(=O)N[C@@H](CCCCN)C(=O)N[C@@H](CCCCN)C(=O)N[C@@H](CCCCN)C(=O)N[C@@H](CC(C)C)C(=O)N[C@@H](CC(C)C)C(=O)N[C@@H](CC(C)C)C(=O)N[C@@H](CCCCN)C(=O)N[C@@H](CCCCN)C(=O)N[C@@H](CC(C)C)C(=O)N[C@@H](CCCCN)C(=O)N[C@@H](CCCCN)C(=O)N[C@@H](CCCCN)C(=O)N[C@@H](CC(C)C)C(=O)N[C@@H](CC(C)C)C(N)=O` [MU 39] (Ac-LKKLKKKLLLKKLKKKLL-NH2) gave a pIC50 of 4.52. In turn, `CC(=O)N[C@@H](CC(C)C)C(=O)N[C@@H](CCCNC(=N)N)C(=O)N[C@@H](CCC(N)=O)C(=O)N[C@@H](CC(C)C)C(=O)N[C@@H](CCCNC(=N)N)C(=O)N[C@@H](CCC(N)=O)C(=O)N[C@@H](CCCNC(=N)N)C(=O)N[C@@H](CC(C)C)C(=O)N[C@@H](CC(C)C)C(=O)N[C@@H](CC(C)C)C(=O)N[C@@H](CCCNC(=N)N)C(=O)N[C@@H](CCC(N)=O)C(=O)N[C@@H](CC(C)C)C(=O)N[C@@H](CCCNC(=N)N)C(=O)N[C@@H](CCC(N)=O)C(=O)N[C@@H](CCCNC(=N)N)C(=O)N[C@@H](CC(C)C)C(=O)N[C@@H](CC(C)C)C(N)=O` [GIN 44] (Ac-LRQLRQRLLLRQLRQRLL-NH2) gave a pIC50 of 4.40. On to `CC(=O)N[C@@H](CCCNC(=N)N)C(=O)N[C@@H](CC(C)C)C(=O)N[C@@H](CC(C)C)C(=O)N[C@@H](CCCNC(=N)N)C(=O)N[C@@H](CC(C)C)C(=O)N[C@@H](CC(C)C)C(=O)N[C@@H](CCCNC(=N)N)C(=O)N[C@@H](CC(C)C)C(=O)N[C@@H](CC(C)C)C(=O)N[C@@H](CCCNC(=N)N)C(=O)N[C@@H](CC(C)C)C(=O)N[C@@H](CC(C)C)C(=O)N[C@@H](CCCNC(=N)N)C(=O)N[C@@H](CC(C)C)C(=O)N[C@@H](CC(C)C)C(=O)N[C@@H](CCCNC(=N)N)C(=O)N[C@@H](CC(C)C)C(=O)N[C@@H](CC(C)C)C(N)=O` [GIN 10] (Ac-RLLRLLRLLRLLRLLRLL-NH2), for which the “efficacy for reducing HSV1 infectivity (in words)” value is recorded as “no, or poor, efficacy”. Besides, the pIC50 (HSV1, Vero cells, Table 4 (Example 2), read-out: Apparent IC50) was 4.41. In addition, the pIC50 (HSV-1, Vero cells, Table 6 (Example 3), read-out: IC50) was 4.41. As to `CSCC[C@H](NC(=O)[C@H](CCCNC(=N)N)NC(=O)[C@H](C)NC(=O)[C@H](CCCNC(=N)N)NC(=O)[C@H](CC(C)C)NC(=O)[C@H](CCCNC(=N)N)NC(=O)[C@H](CCC(=O)O)NC(=O)CNC(=O)[C@H](CCC(=O)O)NC(=O)[C@H](CCSC)NC(=O)[C@H](CCCNC(=N)N)NC(=O)[C@H](C)NC(=O)[C@H](CCCNC(=N)N)NC(=O)[C@H](CC(C)C)NC(=O)[C@H](CCCNC(=N)N)NC(=O)[C@H](CCC(=O)O)NC(=O)CNC(C)=O)C(=O)N[C@@H](CCC(=O)O)C(N)=O` [GIN 14] (Ac-GERLRARMEGERLRARME-NH2), the pIC50 was below 4.40 and the “efficacy for reducing HSV1 infectivity (in words)” value is “no, or poor, efficacy”. For `CC(=O)N[C@@H](Cc1c[nH]c2ccccc12)C(=O)N[C@@H](CCCNC(=N)N)C(=O)N[C@@H](CCCCN)C(=O)N[C@@H](CC(C)C)C(=O)N[C@@H](CCCNC(=N)N)C(=O)N[C@@H](CCCCN)C(=O)N[C@@H](CCCNC(=N)N)C(=O)N[C@@H](CC(C)C)C(=O)N[C@@H](CC(C)C)C(=O)N[C@@H](CC(C)C)C(=O)N[C@@H](CCCNC(=N)N)C(=O)N[C@@H](CCCCN)C(=O)N[C@@H](CC(C)C)C(=O)N[C@@H](CCCNC(=N)N)C(=O)N[C@@H](CCCCN)C(=O)N[C@@H](CCCNC(=N)N)C(=O)N[C@@H](CC(C)C)C(=O)N[C@@H](CC(C)C)C(N)=O` [MU 115] (Ac-WRKLRKRLLLRKLRKRLL-NH2), the pIC50 was 4.76.

On to `CC(=O)N[C@@H](CCC(=O)O)C(=O)N[C@@H](CCCNC(=N)N)C(=O)N[C@@H](CCCCN)C(=O)N[C@@H](CCC(=O)O)C(=O)N[C@@H](CCCNC(=N)N)C(=O)N[C@@H](CCCCN)C(=O)N[C@@H](CCCNC(=N)N)C(=O)N[C@@H](CCC(=O)O)C(=O)N[C@@H](CCC(=O)O)C(=O)N[C@@H](CCC(=O)O)C(=O)N[C@@H](CCCNC(=N)N)C(=O)N[C@@H](CCCCN)C(=O)N[C@@H](CCC(=O)O)C(=O)N[C@@H](CCCNC(=N)N)C(=O)N[C@@H](CCCCN)C(=O)N[C@@H](CCCNC(=N)N)C(=O)N[C@@H](CCC(=O)O)C(=O)N[C@@H](CCC(=O)O)C(N)=O` [GIN 6] (Ac-ERKERKREEERKERKREE-NH2), for which the pIC50 is below 4.40 and the “efficacy for reducing HSV1 infectivity (in words)” value is reported as “no, or poor, efficacy”. Consider RLLLRKLRKRLL [GIN 3], for which the “efficacy for reducing HSV1 infectivity (in words)” value is “no, or poor, efficacy”. Also, for the setting “HSV1, Vero cells, Table 4 (Example 2)”, the “Apparent IC50” value is given as “No”. `CC(=O)N[C@@H](CCCNC(=N)N)C(=O)N[C@@H](CC(=O)O)C(=O)N[C@@H](C)C(=O)N[C@@H](CC(=O)O)C(=O)N[C@@H](CC(=O)O)C(=O)N[C@@H](CC(C)C)C(=O)N[C@@H](CCC(N)=O)C(=O)N[C@@H](CCCCN)C(=O)N[C@@H](CCCNC(=N)N)C(=O)N[C@@H](CCCNC(=N)N)C(=O)N[C@@H](CC(=O)O)C(=O)N[C@@H](C)C(=O)N[C@@H](CC(=O)O)C(=O)N[C@@H](CC(=O)O)C(=O)N[C@@H](CC(C)C)C(=O)N[C@@H](CCC(N)=O)C(=O)N[C@@H](CCCCN)C(=O)N[C@@H](CCCNC(=N)N)C(N)=O` [GIN 13, RDADDLQKR RDADDLQKR] (Ac-RDADDLQKRRDADDLQKR-NH2): the negative-log IC50 (pIC50) was below 4.40 and the “efficacy for reducing HSV1 infectivity (in words)” value is listed as “no, or poor, efficacy”.
